The subject of experiment [1] is human large intestine cancer cell line HCT116. Nature of the experiment: Antitumor effect on human large intestine cancer cell line HCT116 cancer-bearing mice. The class given is in vivo, mouse. To be noted: 10 mg/kg, 2 doses per day, orally for 14 days; HCT116 cancer-bearing BALB/c nude mice; tumor growth vs control group. The method, then:
The compound of the present invention was evaluated for its antitumor effect on human large intestine cancer cell line HCT116 cancer-bearing mice by the following method.
The human large intestine cancer cell line HCT116 (purchased from ATCC (American Type Culture Collection)) was transplanted to each 6-week-old BALB/c female nude mouse (BALB/cA Jcl nu/nu: CLEA Japan Inc.) by the subcutaneous injection of 1.0×10^6 cells. After the transplantation, successfully engrafted tumor was observed, and the tumor size was measured 10 to 14 days after the transplantation. The tumor volume was calculated according to the following expression:
Tumor volume=Major axis×Minor axis×Minor axis×(½)
Individuals in which the volume of the engrafted tumor reached approximately 150 mm^3 were selected and used in the experiment as groups each involving 5 to 8 individuals. Each test compound was suspended in a 0.5% methylcellulose solution and orally administered to each individual for 14 days using the dose and the number of doses shown in the table below. Finally, in order to measure drug effects, the tumor volume was calculated from the tumor sizes at the day before the start of the administration and at the final day of the administration, and tumor growth in the test compound administration group compared with a control administration group given only a 0.5% methylcellulose solution was calculated as T/C according to the following expression:
T/C (%)=(Tumor volume after the completion of the administration of the test compound administration group−Tumor volume at the day before the start of the administration of the test compound administration group)/(Tumor volume after the completion of the administration of the control administration group−Tumor volume at the day before the start of the administration of the control administration group)×100

For a further experiment, the target named is T1, human SCD1 (Homo sapiens, UniProt O00767).
T1 construct: made in house; host or cells: High Five insect cells (baculovirus, pFastBac1/hSCD1); membrane fraction
T1 sequence (O00767 1-359): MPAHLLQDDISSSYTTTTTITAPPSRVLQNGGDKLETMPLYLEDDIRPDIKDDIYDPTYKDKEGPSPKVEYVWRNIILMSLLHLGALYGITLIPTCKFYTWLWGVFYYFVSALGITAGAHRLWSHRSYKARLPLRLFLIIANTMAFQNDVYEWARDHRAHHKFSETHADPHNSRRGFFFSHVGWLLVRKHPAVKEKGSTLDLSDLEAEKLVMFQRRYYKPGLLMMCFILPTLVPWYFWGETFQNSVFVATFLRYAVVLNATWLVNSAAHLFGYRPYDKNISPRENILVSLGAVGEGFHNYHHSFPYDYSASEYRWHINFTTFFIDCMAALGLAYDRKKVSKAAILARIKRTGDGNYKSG
Nature of the experiment: Measurement of human SCD1 binding activity (inhibition of binding of radiolabeled compound Z). The conditions noted are these: 1 μM compound; human SCD1-expressing membrane fraction; compound Z radioligand; read-out: Rate of inhibition of SCD1 binding (%) at compound concentration of 1 μM. The method, then:
Measurement of Human SCD1 Binding Activity Using (5-(6-(1′H-spiro[1-benzofuran-3,3′-pyrrolidin]-1′-yl)pyridazin-3-yl)-1,2,4-oxadiazol-3-yl) [^3H2]methanol
The SCD1 binding activity of the compound of the present invention was measured as the activity of inhibiting the binding of (5-(6-(1′H-spiro[1-benzofuran-3,3′-pyrrolidin]-1′-yl)pyridazin-3-yl)-1,2,4-oxadiazol-3-yl)[^3H2]methanol (radiolabeled form of the compound disclosed as a SCD inhibitor in Example 157 of International Publication No. WO2008/096746; in the present specification, also referred to as compound Z) to SCD1.
Specifically, first, Human liver cDNA library (Takara Bio Inc.) was cloned as a template by PCR using KOD-Plus-(Toyobo Co., Ltd.) DNA polymerase. The primers used were 5′-[…]-3′ and 5′-[…]-3′. The amplification fragment was temporarily transferred to a pCR Blunt II-TOPO vector using Zero Blunt PCR Cloning Kit (Life Technologies, Inc.) to obtain pCR Blunt II-TOPO/hSCD1. A fragment obtained by the cleavage of this pCR Blunt II-TOPO/hSCD1 with BamHI and NotI was transferred to pFastBac1 (Life Technologies, Inc.) to construct a recombinant plasmid pFastBac1/hSCD1 for hSCD1 insect cell expression systems.
Baculovirus was prepared using the pFastBac1/hSCD1 plasmid according to the protocol of Bac-to-Bac Baculovirus Expression System (Life Technologies, Inc.).
The insect cells for use in expression were High Five cells (Life Technologies, Inc.) subcultured in a PSFM-J1 medium (Wako Pure Chemical Industries, Ltd.) containing 5% FBS, 10 U/L heparin (Sigma-Aldrich Corp.) and 50 μg/mL gentamicin.
The High Five cells were inoculated at 0.8×10^6 cells/mL and cultured until the following day. When the cell density reached 2.0×10^6 cells/mL, Ammonium Iron(III) Sulfate 12-Water (Wako Pure Chemical Industries, Ltd.) was added thereto at a final concentration of 10 μM. The cells were further infected with the baculovirus and cultured for 3 days.
After the completion of the culture, the culture solution was centrifuged (4° C., 4,000 rpm, […]) and frozen at −80° C. to obtain hSCD1-expressing insect cells. Next, the frozen hSCD1-expressing insect cells were suspended in buffer A (50 mM Tris-HCl (pH 7.5) containing 250 mM sucrose and cOmplete Protease Inhibitor Cocktail Tablets (F. Hoffmann-La Roche, Ltd.)), and the cells were disrupted (4° C., 20,000 rpm, 20 sec×2) using a POLYTORON homogenizer (Central Scientific Commerce, Inc.).
This cell lysate was centrifuged (4° C., 850×g, […]), and the supernatant was further ultracentrifuged (4° C., 186,000×g, 60 min). The supernatant was discarded, and buffer A was added to the precipitate. The resultant was suspended using POLYTRON (4° C., 10,000 rpm, 10 sec×2) and passed through a 40-μm cell strainer to prepare a human SCD1-expressing membrane fraction (hereinafter, also simply referred to as human SCD1). The protein concentration was measured using BCA Protein Assay Kit (Thermo Fisher Scientific, Inc.) with BSA used as standards.
The obtained primary dilution was diluted 250-fold by the addition of an assay buffer (10 mM Tris-HCl, pH 7.5, 100 mM KCl, 10 mM NaF, 3 mM MgCl2, 0.005% Tween 20, 1 mM GSH) to obtain a secondary dilution. The human SCD1 diluted using an assay buffer was dispensed at 100 μL/well (containing 0.2 μg of the protein) to a polypropylene 96-well plate, and then, the secondary dilution of the compound was added thereto at 50 μL/well. Further, a solution of 12 nM compound Z diluted with an assay buffer was added thereto at 50 μL/well, and the plate was left standing at room temperature for 2 hours. Then, the contents in each well were transferred to each well of UniFilter-96 GF/C PEI coated plate (PerkinElmer, Inc.) wetted with a washing buffer, followed by washing five times with a washing buffer (10 mM Tris-HCl, pH 7.5). After drying of the filter plate, Microscint-O (PerkinElmer, Inc.) was added thereto at 25 μL/well, and the obtained radioactivity was measured using TopCount (PerkinElmer, Inc.). […]

This note sets out measurements from patent US20170015654A1, “PYRIDAZINE COMPOUND” (TAKEDA PHARMACEUTICAL COMPANY LIMITED, priority 2014, published 2017).

`N#CC1(c2ccc(C(F)(F)F)cc2)CCN(c2ccc(-c3nc(CO)no3)nn2)CC1` [Example 38, 1-(6-(3-(Hydroxymethyl)-1,2,4-oxadiazol-5-yl)pyridazin-3-yl)-4-(4-(trifluoromethyl)phenyl)piperidine-4-carbonitrile]: in experiment [1], the “T/C (%)” value turned out to be 85.8%. Also, the inhibition at 1 µM at human SCD1 is 95%.
